These are literature values, as cited in patent US20010046548A1, “Anticholesterolemic edible oil” (priority 1998, published 2001).

`CC[C@H](CC[C@@H](C)[C@H]1CC[C@H]2[C@@H]3CC=C4C[C@@H](O)CC[C@]4(C)[C@H]3CC[C@]12C)C(C)C` [beta-sitosterol]: the fraction absorbed entry (ingested, small intestine) is listed as “less than 5%”.
Consider `CC[C@H](CC[C@@H](C)[C@H]1CC[C@H]2[C@@H]3CC[C@H]4C[C@@H](O)CC[C@]4(C)[C@H]3CC[C@]12C)C(C)C` [sitostanol], for which, under “in vivo”, the absorption entry is listed as “completely unabsorbed”.
